# From patent US10532040B2, “Methods of treating cancer with herbacetin” (REGENTS OF THE UNIVERSITY OF MINNESOTA, priority 2011, dated 2020)
# Target: T1, ODC (Homo sapiens, UniProt P11926)
# T1 sequence (P11926 1-461): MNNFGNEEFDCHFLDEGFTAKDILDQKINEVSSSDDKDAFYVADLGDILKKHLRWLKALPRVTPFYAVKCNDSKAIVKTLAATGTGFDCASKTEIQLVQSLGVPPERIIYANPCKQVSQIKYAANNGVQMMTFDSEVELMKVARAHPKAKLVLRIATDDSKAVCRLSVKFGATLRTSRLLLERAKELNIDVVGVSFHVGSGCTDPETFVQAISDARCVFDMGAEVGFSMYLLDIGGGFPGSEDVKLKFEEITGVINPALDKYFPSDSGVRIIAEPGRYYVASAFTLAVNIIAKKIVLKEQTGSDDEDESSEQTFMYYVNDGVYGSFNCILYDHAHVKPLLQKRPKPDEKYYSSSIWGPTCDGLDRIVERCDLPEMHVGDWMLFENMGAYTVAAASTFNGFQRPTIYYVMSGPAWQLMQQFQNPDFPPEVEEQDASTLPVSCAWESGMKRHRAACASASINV
# Assay: ODC enzyme assay with recombinant ODC protein
# Format: biochemical
# Conditions: in vitro
# Description: FIGS. 5A-5E. The effect of herbacetin on ODC activity was assessed in (a) DLD-1 and (b) HCT116 colon cancer cells. Cell lysates were incubated for 15 min with reaction buffer and different doses of herbacetin or DFMO and then incubated at 37° C. for 1 h. Herbacetin (c) and kaempferol (d) were modeled as allosteric inhibitors with the ODC crystal structure. (e) The effect of herbacetin or kaempferol on ODC activity was assessed using a human ODC recombinant protein. Each reaction was incubated at 37° C. for 1 h and ODC activity was measured as the release of CO2 from L-[1-C^14] ornithine. Data are represented as means±S.D. of triplicate values. The asterisk (*) indicates a significant difference (p<0.05) between herbacetin-treated samples compared to untreated or kaempferol-treated samples.
# ODC activity was measured as the release of CO2 from L-[1-C^14] ornithine as previously described ([…]).
structure (smiles),measurement,value
"O=c1c(O)c(-c2ccc(O)cc2)oc2cc(O)cc(O)c12 [kaempferol, reference compound]",ODC activity (release of CO2 from L-[1-C^14] ornithine),little effect
